Data published in ChEMBL document CHEMBL4130498, “Synthesis and antibacterial activity of new symmetric polyoxygenated dibenzofurans” (Eur J Med Chem, 2017).
Values after ≈ are worked out from the molar mass of the structure shown. Where a name gives a salt, the structure may show the parent alone.

Key:
Saccharomyces cerevisiae [1] = experiment: Toxicity in Saccharomyces cerevisiae harboring mad2 deletion mutant after 24 to 48 hrs by broth microdilution method; assay type: organism-based; conditions: in vivo
Saccharomyces cerevisiae [2] = experiment: Toxicity in Saccharomyces cerevisiae BY4741 after 24 to 48 hrs by broth microdilution method; assay type: organism-based; conditions: in vivo
Saccharomyces cerevisiae [3] = experiment: Toxicity in Saccharomyces cerevisiae harboring yap1 deletion mutant after 24 to 48 hrs by broth microdilution method; assay type: organism-based; conditions: in vivo
Staphylococcus aureus [4] = experiment: Antibacterial activity against methicillin-sensitive Staphylococcus aureus ATCC 25923 after 24 hrs by broth microdilution method; assay type: functional; conditions: ATCC 25923, 24 h
Saccharomyces cerevisiae [5] = experiment: Toxicity in Saccharomyces cerevisiae harboring rad52/rad9 deletion mutant after 24 to 48 hrs by broth microdilution method; assay type: organism-based; conditions: in vivo
Enterococcus faecalis = experiment: microbe, parasite or virus in culture; assay type: functional; conditions: ATCC 29212, 24 h
Description: Antibacterial activity against Enterococcus faecalis ATCC 29212 after 24 hrs by broth microdilution method

Staphylococcus aureus [6] = experiment: Antibacterial activity against methicillin-resistant vancomycin-intermediate resistant Staphylococcus aureus NRS402 after 24 hrs by broth microdilution method; assay type: functional; conditions: NRS402, 24 h
Saccharomyces cerevisiae [7] = experiment: Toxicity in Saccharomyces cerevisiae harboring yap1 deletion mutant assessed as cell growth at 128 uM after 24 to 48 hrs by broth microdilution method relative to control; assay type: organism-based; conditions: in vivo
Saccharomyces cerevisiae [8] = experiment: Toxicity in Saccharomyces cerevisiae BY4741 assessed as cell growth at 128 uM after 24 to 48 hrs by broth microdilution method relative to control; assay type: organism-based
Saccharomyces cerevisiae [9] = experiment: Toxicity in Saccharomyces cerevisiae harboring rad52/rad9 deletion mutant assessed as cell growth at 128 uM after 24 to 48 hrs by broth microdilution method relative to control; assay type: organism-based; conditions: in vivo
Saccharomyces cerevisiae [10] = experiment: Toxicity in Saccharomyces cerevisiae harboring mad2 deletion mutant assessed as cell growth at 128 uM after 24 to 48 hrs by broth microdilution method relative to control; assay type: organism-based; conditions: in vivo

Oc1cc(O)c2c(c1)oc1cc(O)cc(O)c12
MIC (Saccharomyces cerevisiae [1]): > 128 µM | MIC (Saccharomyces cerevisiae [2]): > 128 µM | MIC (Saccharomyces cerevisiae [3]): > 128 µM | MIC (Staphylococcus aureus [4]): > 128 µM | MIC (Saccharomyces cerevisiae [5]): > 128 µM | MIC (Enterococcus faecalis): > 128 µM | MIC (Staphylococcus aureus [6]): > 128 µM

CCC(C)C(=O)c1c(O)cc(O)cc1O (stereo not given)
MIC (Saccharomyces cerevisiae [1]): > 128 µM | MIC (Saccharomyces cerevisiae [2]): > 128 µM | MIC (Saccharomyces cerevisiae [3]): > 128 µM | MIC (Staphylococcus aureus [4]): 64 µM (≈ 13.5 µg/mL) | MIC (Saccharomyces cerevisiae [5]): > 128 µM | MIC (Enterococcus faecalis): 64 µM (≈ 13.5 µg/mL) | MIC (Staphylococcus aureus [6]): 32 µM (≈ 6.73 µg/mL)

CCC(C)C(=O)c1c(O)cc(O)c2c1oc1c(C(=O)C(C)CC)c(O)cc(O)c12 (stereo not given)
MIC (Saccharomyces cerevisiae [1]): > 128 µM | MIC (Saccharomyces cerevisiae [2]): > 128 µM | MIC (Saccharomyces cerevisiae [3]): > 128 µM | MIC (Staphylococcus aureus [4]): 8 µM (≈ 3.2 µg/mL) | MIC (Saccharomyces cerevisiae [5]): > 128 µM | MIC (Enterococcus faecalis): 32 µM (≈ 12.8 µg/mL) | MIC (Staphylococcus aureus [6]): 8 µM (≈ 3.2 µg/mL)

CCC(C)C(=O)c1c(O)cc(O)c(CCC(C)C)c1O (stereo not given)
Activity (Saccharomyces cerevisiae [7]): 20 to 40% | MIC (Saccharomyces cerevisiae [1]): > 128 µM | MIC (Saccharomyces cerevisiae [2]): > 128 µM | MIC (Saccharomyces cerevisiae [3]): > 128 µM | Activity (Saccharomyces cerevisiae [8]): 20 to 40% | MIC (Staphylococcus aureus [4]): 32 µM (≈ 8.97 µg/mL) | MIC (Saccharomyces cerevisiae [5]): > 128 µM | MIC (Enterococcus faecalis): 32 µM (≈ 8.97 µg/mL) | MIC (Staphylococcus aureus [6]): 32 µM (≈ 8.97 µg/mL) | Activity (Saccharomyces cerevisiae [9]): 20 to 40% | Activity (Saccharomyces cerevisiae [10]): 20 to 40%

CCC(C)C(=O)c1c(O)c(CCC(C)C)c(O)c(-c2c(O)c(CCC(C)C)c(O)c(C(=O)C(C)CC)c2O)c1O (stereo not given)
MIC (Saccharomyces cerevisiae [1]): > 128 µM | MIC (Saccharomyces cerevisiae [2]): > 128 µM | MIC (Saccharomyces cerevisiae [3]): > 128 µM | MIC (Staphylococcus aureus [4]): 8 µM (≈ 4.47 µg/mL) | MIC (Saccharomyces cerevisiae [5]): > 128 µM | MIC (Enterococcus faecalis): 4 µM (≈ 2.23 µg/mL) | MIC (Staphylococcus aureus [6]): 1 µM (≈ 0.559 µg/mL)

CCCc1c(O)c(C(=O)C(C)CC)c(O)c(-c2c(O)c(CCC)c(O)c(C(=O)C(C)CC)c2O)c1O (stereo not given)
MIC (Saccharomyces cerevisiae [1]): > 128 µM | MIC (Saccharomyces cerevisiae [2]): > 128 µM | MIC (Saccharomyces cerevisiae [3]): > 128 µM | MIC (Staphylococcus aureus [4]): 4 µM (≈ 2.01 µg/mL) | MIC (Saccharomyces cerevisiae [5]): > 128 µM | MIC (Enterococcus faecalis): 2 µM (≈ 1.01 µg/mL) | MIC (Staphylococcus aureus [6]): 0.5 µM (≈ 0.251 µg/mL)

CCCc1c(O)cc(O)c(C(=O)C(C)CC)c1O (stereo not given)
Activity (Saccharomyces cerevisiae [7]): 20 to 40% | MIC (Saccharomyces cerevisiae [1]): > 128 µM | MIC (Saccharomyces cerevisiae [2]): > 128 µM | MIC (Saccharomyces cerevisiae [3]): > 128 µM | Activity (Saccharomyces cerevisiae [8]): 20 to 40% | MIC (Staphylococcus aureus [4]): 64 µM (≈ 16.1 µg/mL) | MIC (Saccharomyces cerevisiae [5]): > 128 µM | MIC (Enterococcus faecalis): 64 µM (≈ 16.1 µg/mL) | MIC (Staphylococcus aureus [6]): 64 µM (≈ 16.1 µg/mL) | Activity (Saccharomyces cerevisiae [9]): 20 to 40% | Activity (Saccharomyces cerevisiae [10]): 20 to 40%

CCCc1c(O)c(C(=O)C(C)CC)c2oc3c(C(=O)C(C)CC)c(O)c(CCC)c(O)c3c2c1O (stereo not given)
MIC (Saccharomyces cerevisiae [1]): > 128 µM | MIC (Saccharomyces cerevisiae [2]): > 128 µM | MIC (Saccharomyces cerevisiae [3]): > 128 µM | MIC (Staphylococcus aureus [4]): 0.5 µM (≈ 0.242 µg/mL) | MIC (Saccharomyces cerevisiae [5]): > 128 µM | MIC (Enterococcus faecalis): 0.5 µM (≈ 0.242 µg/mL) | MIC (Staphylococcus aureus [6]): 0.5 µM (≈ 0.242 µg/mL)

Cc1onc(-c2ccccc2)c1C(=O)N[C@@H]1C(=O)N2[C@@H]1SC(C)(C)[C@@H]2C(=O)O
MIC (Staphylococcus aureus [4]): ≤ 0.3 µM | MIC (Enterococcus faecalis): 9.5 µM (≈ 3.81 µg/mL) | MIC (Staphylococcus aureus [6]): 150 µM (≈ 60.2 µg/mL)

CN[C@H](CC(C)C)C(=O)N[C@H]1C(=O)N[C@@H](CC(N)=O)C(=O)N[C@H]2C(=O)N[C@H]3C(=O)N[C@H](C(=O)N[C@H](C(=O)O)c4cc(O)cc(O)c4-c4cc3ccc4O)[C@H](O)c3ccc(c(Cl)c3)Oc3cc2cc(c3O[C@@H]2O[C@H](CO)[C@@H](O)[C@H](O)[C@H]2O[C@H]2C[C@](C)(N)[C@H](O)[C@H](C)O2)Oc2ccc(cc2Cl)[C@H]1O [VANCOMYCIN HYDROCHLORIDE]
MIC (Staphylococcus aureus [4]): 0.7 µM | MIC (Enterococcus faecalis): 1.4 µM | MIC (Staphylococcus aureus [6]): 5.5 µM
